# Results as given in patent publication US4183931A, “2-Ketoalkyl-4(3H)-quinazolinones” (Research Corporation, priority 1977, dated 1980).
# Like-named read-outs stand apart in the source and are kept apart here.
# Experiments:
# [1] = NPP maximal electroshock seizure (MES) protection; format: in vivo, white male mice of the Carworth Farm Strain CF-1; settings: Mus musculus, ip; conducted at 30 mg/kg i.p.
# [2] = NPP lethality (estimated LD50); settings: mouse, in vivo, ip
# [3] = NINCDS Subcutaneous Pentylenetetrazol (Metrazol) Seizure Threshold Test (scMet); format: in vivo, mice; settings: for minimal effective dose: sc, read-out: scMet: dosage level that elicited protection
# [4] = NINCDS rotorod ataxia test (minimal neurotoxicity); format: in vivo, mice; settings: mouse, in vivo, ip; secondary evaluation, at time of peak effect
# Description: (§1) 1. Neurological Activity Tests. The biological testing program is designed to evaluate the following four aspects of drug action: (1) the existence and specificity of anticonvulsant activity; (2) the toxicity, particularly to the central nervous system; and, if the results of (1) and (2) are favorable, (3) the potency and protective index, a comparison between toxic and effective dose and (4) the time course of activity. Compounds were evaluated for anticonvulsant activity in two seizure models, the maximal electroshock seizure (MES) test and the subcutaneous pentylenetetrazol (Metrazol) seizure threshold (scMet) test.
# Central nervous system toxicity was evaluated in the rotorod ataxia test. This test is designed to detect minimal neurotoxicity. The animal is placed on a 1-inch diameter knurled plastic rod rotating at 6 rpm. Normal mice can remain indefinitely on a rod rotating at this speed. Neurological deficit is defined as the failure of the animal to remain on the rod for at least 1 minute. This test has a clear end-point, is quantifiable and correlates well with the clinical assessment of minimal toxicity.
# (§2) Specific anticonvulsant evaluations performed by NINCDS using MES, scMet and Rotorod assays are presented in Tables III & IV for fourteen new compounds as well as several known compounds. Table III centers attention on 2-substituted-3-o-tolyl-4-(3H)-quinazolinones while Table IV includes the findings for various other 2,3-disubstituted-4(3H)-quinazolinones. As described earlier, the MES, scMet and Rotorod tests were performed one-half hour and four hours after administration of each compound. The tables identify the dosage level that elicited a positive result, such as protection against MES and scMet induced seizures, or loss of balance on the rotorod.
# In the Secondary Evaluation, median effective doses (ED50) are determined in the MES, scMet and Rotorod assays using the procedures defined in Pharmacology, 95, 99-113 (1949). In addition, each compound's anticonvulsant activity and neurotoxicity over time are determined by measuring the effect of an intraperitoneally administered estimated median effective dose on maximal electroshock seizures and rotorod performance at intervals of 1/2, 1, 2, 3, 4, 6 and 8 hours.
# Separate groups of animals are used for each time period. The times of peak toxic and anticonvulsant effect are taken from the resulting graph of percent of animals responding vs. time, and the determinations of median effective doses are performed at those times.
# [5] = NINCDS primary evaluation, overall classification; format: in vivo, mice; settings: mouse, in vivo
# Description: as §1, §2
structure (smiles),measurement,setting,value
"O=C(Cc1nc2ccccc2c(=O)n1-c1ccccc1Cl)c1ccncc1 [IVd, 2-[2-Oxo-2-(4-pyridyl)ethyl]-3-o-chlorophenyl-4(3H)-quinazolinone]",responders at 30 mg/kg,[1],50%
same,LD50 at 48 h,[2],237 mg/kg
same,ED50,"[3]; Mus musculus, ip, secondary evaluation, at time of peak effect",30.8 mg/kg
same,minimal effective dose,"[3]; Mus musculus, after 0.5 hr",30 mg/kg
same,minimal effective dose,"[3]; Mus musculus, after 4 hr (value in parentheses)",100 mg/kg
same,PI scMet (Protective Index = TD50/ED50),[3]; secondary evaluation,4.44
same,potency against scMet seizures compared with methaqualone,[3]; secondary evaluation,more potent
same,scMet protective index compared with Ethosuximide,[3]; secondary evaluation,higher scMet protective index than Ethosuximide
same,scMet protective index compared with methaqualone,[3]; secondary evaluation,approximately four-fold higher
same,scMet ED50 compared with commercial petit mal agents,"[3]; vs Ethotoin, Trimethadione, Paramethadione, Ethosuximide, Methsuximide, Phensuximide, Phenacamide (data of DHEW Publication No. (NIH) 76-1093)",lower ED50 in the scMet screen than the commercially available petit mal agents
same,TD50,[4],137 mg/kg
same,dosage for useful anticonvulsant activity relative to dosage for sedative-hypnotic activity,[5],fourfold lower
